From PMC11025371, “Alcohols as inhibitors of ammonia oxidizing archaea and bacteria” (FEMS Microbiology Letters, 2023)
In brackets after ≈: the same amount, converted by molar mass. Entries after “also recorded” stand apart in the source; their conditions may differ. Read-outs that look alike come from different tables or passages of the source. Marks after values point to notes of the source that are not given here.

Key:
‘Ca. N. franklandus’ C13 [1] = experiment: Whole-cell activity assay with hydroxylamine as substrate (specificity of AMO inhibition); format: cell-based, ‘Candidatus Nitrosocosmicus franklandus’ C13; details: 200 µM hydroxylamine; for Rate of nitrite accumulation from hydroxylamine oxidation compared to the non-inhibited control: alcohol at its lowest concentration fully inhibitory to ammonia oxidation; for Specificity of inhibition to AMO (effect on hydroxylamine oxidation): fully inhibitory alcohol concentration
Procedure: (§1) Nitrosomonas europaea and ‘Ca. N. franklandus’ C13 cells were harvested at mid-exponential phase (∼800 µM NO2^− accumulated) by filtration onto 0.22 µm pore-size membrane filter (PES, Merck Millipore). Cells were then washed and resuspended in FWM salts (i.e. FWM without added NH4Cl and other medium components as described above) buffered with 10 mM HEPES buffer (pH 7). Cells were incubated at 28°C for N. europaea and 37°C for ‘Ca. N. franklandus’ C13 for ∼1 h until endogenous respiration ceased.
(§2) Although these alcohols were added at concentrations above their solubility for the consistency of the experimental design, the limit of solubility was considered when evaluating the results. Reactions were initiated by addition of 500 µM NH4Cl or 200 µM NH2OH. Vials containing N. europaea and ‘Ca. Nitrosocosmicus franklandus’ C13 cells were incubated at 28°C and 37°C, respectively. The activity of cultures was followed by monitoring nitrite accumulation over 1 h, measured in 15 min intervals using Griess reagent in a 96-well plate format as previously described (Lehtovirta-Morley et al. [2014]). The final cell concentration in the activity assays was ∼10^7 cells ml^−1 for both N. europaea and ‘Ca. N. franklandus’ C13, which equate to ∼1.2 and 5.55 µg protein ml^−1, respectively. Cell counts were performed as previously described (Oudova-Rivera et al. [2023]). Protein concentrations were determined using a Pierce bicinchoninic acid (BCA) protein assay kit (Thermo Scientific) according to the manufacturer instructions. One-way ANOVA with LSD post-hoc tests were performed using SPSS statistics software version 27 (IBM).
(§3) Inhibition by alcohols was tested at a fixed substrate concentration of 500 µM NH4Cl or 200 µM hydroxylamine for both N. europaea and ‘Ca. N. franklandus’ C13. Ammonia and hydroxylamine concentrations were selected based on previously published Km values and activity assays (Suzuki et al. [1974], Martens-Habbena et al. [2009], Oudova-Rivera et al. [2023]). Fully inhibitory concentrations of alcohols were determined experimentally with a series of activity assays, gradually narrowing down the range of alcohol concentrations applied. Full inhibition was defined as a lack of sustained nitrite accumulation, where there was either no nitrite accumulation at all, or where a minor accumulation of nitrite was initially detected but ceased (potentially due to a delayed effect of the inhibitor).
(§4) Inhibition of ammonia oxidation was tested using whole-cell activity assays with the concentration of alcohols ranging from 2 to 100 mM and fixed substrate ammonia concentration of 500 µM NH4Cl. […] Because hydroxylamine, the product of ammonia oxidation, is a pathway intermediate downstream of AMO, any inhibitors specific to AMO should not interfere with hydroxylamine oxidation.

‘Ca. N. franklandus’ C13 [2] = experiment: Whole-cell activity assay, inhibition of ammonia oxidation (nitrite accumulation from 500 µM NH4Cl); format: cell-based, ‘Candidatus Nitrosocosmicus franklandus’ C13; details: for Lowest fully inhibitory concentration (I) for ammonia oxidation / IC50: 37°C; for Lowest fully inhibitory concentration (I) for ammonia oxidation: full inhibition = lack of sustained nitrite accumulation; for IC50: nitrite accumulation over 1 h, read-out: Half-maximal inhibitory concentration (IC50) of ammonia oxidation
Procedure: as §1, §2
The reaction velocity of ammonia and hydroxylamine oxidation was determined by measuring the rate of nitrite accumulation over time (µM min^−1). […] The half-maximal inhibitory concentration (IC50) was calculated from the slope and y-axis intercept over the linear part of the curve following the formula: […]
as §3, §4

N. europaea [3] = experiment: Whole-cell activity assay with hydroxylamine as substrate (specificity of AMO inhibition); format: cell-based, Nitrosomonas europaea; details: 200 µM hydroxylamine; for Rate of nitrite accumulation from hydroxylamine oxidation compared to the control: alcohol at its lowest concentration fully inhibitory to ammonia oxidation; for Specificity of inhibition to AMO (effect on hydroxylamine oxidation): fully inhibitory alcohol concentration
Procedure: as §1, §2, §3, §4

N. europaea [4] = experiment: Whole-cell activity assay, inhibition of ammonia oxidation (nitrite accumulation from 500 µM NH4Cl); format: cell-based, Nitrosomonas europaea; details: 28°C; for Lowest fully inhibitory concentration (I) for ammonia oxidation: full inhibition = lack of sustained nitrite accumulation; for IC50: nitrite accumulation over 1 h, read-out: Half-maximal inhibitory concentration (IC50) of ammonia oxidation
Procedure: as §1
as §2, with “. Although” for “Although”
The reaction velocity of ammonia and hydroxylamine oxidation was determined by measuring the rate of nitrite accumulation over time (µM min^−1). The logarithm of the reaction velocity, calculated as a percentage of the non-inhibited control, was plotted against the inhibitor concentration resulting in a linear relationship (Figs. S1 and S2). The half-maximal inhibitory concentration (IC50) was calculated from the slope and y-axis intercept over the linear part of the curve following the formula: […]
as §3

physchem = details: water
N. europaea [5] = system: N. europaea; parameters: method as in Hooper and Terry [1973]; details: ref Hooper and Terry [1973]; cited from earlier work

Row | SMILES | IC50 (‘Ca. N. franklandus’ C13 [2]) [mM] | IC50 (N. europaea [4]) [mM] | IC50 (N. europaea [4]; Nitrosomonas europaea) [mM] | solubility (physchem) [mM] | Rate of nitrite accumulation from hydroxylamine oxidation compared to the non-inhibited control (‘Ca. N. franklandus’ C13 [1]) | Lowest fully inhibitory concentration (I) for ammonia oxidation (‘Ca. N. franklandus’ C13 [2]) | Rate of nitrite accumulation from hydroxylamine oxidation compared to the control (N. europaea [3]) | Lowest fully inhibitory concentration (I) for ammonia oxidation (N. europaea [4]) | Specificity of inhibition to AMO (effect on hydroxylamine oxidation) (‘Ca. N. franklandus’ C13 [1]) | Specificity of inhibition to AMO (effect on hydroxylamine oxidation) (‘Ca. N. franklandus’ C13 [1]; listed as methanol) | Specificity of inhibition to AMO (effect on hydroxylamine oxidation) (N. europaea [3]) | inhibition at 2000 µM (‘Ca. N. franklandus’ C13 [2]; 2 mM octanol (limit of solubility)) [%] | Lowest fully inhibitory concentration (I) for ammonia oxidation (‘Ca. N. franklandus’ C13 [2]; listed as octanol) [mM] | Concentration giving maximal inhibition (N. europaea [5]) [M]
1 | CCCCO [Butanol, 1-butanol] | 4 | 7.6 |  |  | 55% ±2.3% | 40 mM | 83% ± 1.8% | 100 mM |  |  |  |  |  | 
2 | CCCCCCCCO [Octanol, 1-octanol] |  |  |  | 2 (≈ 260 µg/mL) | 33% ± 1.4% | 10** mM | no activity detected | 20** mM |  |  |  | 39 | 10 | 
3 | CCCO [1-Propanol, 1-propanol] | 6.2 | 13.6 |  |  |  | 20 mM |  | 100 mM |  |  |  |  |  | 0.33
4 | CCCCCCCO [Heptanol, 1-heptanol] | 3.6 |  | 4.5 | 17 (≈ 1980 µg/mL) | 10% ± 0.5% | 17 mM | no activity detected | 17 mM |  |  |  |  |  | 
5 | CC(C)O [2-Propanol, 2-propanol] | 26.8 | 32.6 |  |  |  | 40 mM |  | 100 mM |  |  |  |  |  | 0.13
6 | CCO [Ethanol, ethanol] | 7.2 | 20.9 |  |  |  | 80 mM |  | 90 mM | did not interfere with hydroxylamine oxidation; also recorded: specific inhibitor; also recorded: specific inhibitors of the AMO |  | specific inhibitor; also recorded: specific inhibitors of the AMO |  |  | 

Now from value to compound, other results behind:

Row | IC50 (‘Ca. N. franklandus’ C13 [2]) [mM] | IC50 (N. europaea [4]) [mM] | IC50 (N. europaea [4]; Nitrosomonas europaea) [mM] | solubility (physchem) [mM] | SMILES | Rate of nitrite accumulation from hydroxylamine oxidation compared to the non-inhibited control (‘Ca. N. franklandus’ C13 [1]) | Lowest fully inhibitory concentration (I) for ammonia oxidation (‘Ca. N. franklandus’ C13 [2]) | Rate of nitrite accumulation from hydroxylamine oxidation compared to the control (N. europaea [3]) | Lowest fully inhibitory concentration (I) for ammonia oxidation (N. europaea [4]) | Specificity of inhibition to AMO (effect on hydroxylamine oxidation) (‘Ca. N. franklandus’ C13 [1]) | Specificity of inhibition to AMO (effect on hydroxylamine oxidation) (‘Ca. N. franklandus’ C13 [1]; listed as methanol) | Specificity of inhibition to AMO (effect on hydroxylamine oxidation) (N. europaea [3]) | inhibition at 2000 µM (‘Ca. N. franklandus’ C13 [2]; 2 mM octanol (limit of solubility)) [%] | Lowest fully inhibitory concentration (I) for ammonia oxidation (‘Ca. N. franklandus’ C13 [2]; listed as octanol) [mM] | Concentration giving maximal inhibition (N. europaea [5]) [M]
7 | 0.19 | 0.31 |  |  | CO [Methanol] | not affected | 8 mM |  | 10 mM | specific inhibitors of the AMO | did not interfere with hydroxylamine oxidation | specific inhibitors of the AMO |  |  | 
8 | 3.6 |  | 5.3 |  | CCCCCO [Pentanol, 1-pentanol] | 53% ± 2.8% | 20 mM | 27% ± 2.6% | 100 mM |  |  |  |  |  | 
9 | 2.4 |  | 2.2 |  | CCCCCCO [Hexanol, 1-hexanol] | 13% ± 0.9% | 15 mM | 18% ± 5.6% | 20 mM |  |  |  |  |  | 
